Measured values published in patent US6586460B1, “Heteroarotinoids containing urea or thiourea linker” (The Board of Regents for Oklahoma State University, priority 2001, dated 2003).

What was measured:
C-33A = test: Growth inhibition assay (SRB); format: cell-based; settings: 10 μM, three-day treatment, Table I
Text: (§1) To illustrate the general and useful biological activity of the heteroarotinoids described in this invention, selected compounds were screened for ability to inhibit the growth of three ovarian cancerous cell lines, namely Caov, SKOV, and OVCAR cell lines, three cervical cell lines (Cervix HPV-Wt p53, Cervix HPV-Mut p53, and Cervix HPV-Mut p53), and one vulvar (Vulvar HPV-Mut p53) cell line as shown in Tables I-III. The cell lines and the technology have been previously described [See Journal of Medicinal Chemistry, 1999, Vol. 42, pages 3602-3614 in an article entitled “Synthesis, Structure-Activity Relationships, and RAR γ-Ligand Interactions of Nitrogen Heteroarotinoids” by A. Dhar, S. Liu, J. Klucik, K. D. Berlin, M. M. Madler, S. Lu, R. T. Ivey, D. Zacheis, C. W. Brown, E. C. Nelson, P. J. Birckbichler, and D. M. Benbrook], but the general technique was slightly modified. Cultures of the cancerous cells were plated in volumes of 150 μL in 96-well microtiter plates at concentrations of 2000-4000 cells/well, depending upon the cell line used. Retinoids were added the next day at 4× the concentrations in 50 μL of media resulting in 1, 2, 3, 4, 5, 7, and 10 μM final concentrations of each retinoid. Control cultures were treated with the same volume of DMSO. After 3 days of treatment, the cell density in each well was determined by fixing the cells in trichloroacetic acid followed by staining the cytoplasmic proteins with sulforhoamine B (SRB). After rinsing, the SRB was solubilized in Tris-HCl, and the optical density of each culture was determined with a MR600 microtiter plate reader. Each experiment was performed in triplicate, and the three values of each treatment were averaged. The average OD of the treated cultures was divided by that of the control cultures treated with solvent alone. To determine the percent growth inhibition, this ratio was subtracted from 1 and multiplied by 100. Tables I, II, and III contain representative examples of the inhibition of growth by the inventive heteroarotinoids of the cancerous cell lines investigated at two independent concentrations (1 and 10 μM). As standards for comparison purposes, trans-retinoic acid (t-RA), 9-cis-retinoic acid (9-c-RA), 13-cis-retinoic acid (13-c-RA), and […] (4-HPR) were added in parallel experiments along with the heteroarotinoids and with dimethyl sulfoxide (DMSO) as the solvent. For convenience, the data in Tables II and III are duplicated and ranked according to tumor type.

CAOV-3 = test: Growth inhibition assay (SRB); format: cell-based; settings: 10 μM, three-day treatment, Table I
Text: as §1

HT-3 = test: Growth inhibition assay (SRB); format: cell-based; settings: 10 μM, three-day treatment, Table I
Text: as §1

SK-OV-3 = test: Growth inhibition assay (SRB); format: cell-based; settings: 10 μM, three-day treatment, Table I
Text: as §1

SW962 = test: Growth inhibition assay (SRB); format: cell-based; settings: 10 μM, three-day treatment, Table I
Text: as §1

SiHa = test: Growth inhibition assay (SRB); format: cell-based; settings: 10 μM, three-day treatment, Table I
Text: as §1

OVCAR-3 = test: Growth inhibition assay (SRB); format: cell-based, human; settings: 10 μM, three-day treatment, Table I
Text: as §1

[1] = Liver toxicity (plasma ALT activity, liver sections); format: in vivo; settings: 10 mg/kg/day p.o.; for liver toxicity (ALT activities, liver sections assessed by pathologist): mice
Text: Toxic compounds can induce livers to release enzymes called serum transaminases, such as alanine aminotransferase (ALT). The assay for ALT is the most universally accepted clinical laboratory marker used to evaluate hepatic toxicity induced by pharmaceuticals [See “Serum Transferase Elevations as Indicators or Hepatic Injury Following the Administration of Drugs”, Reg. Tox. Pharm., volume 27, 1998, pp 119-130, by D. E. Amacher]. At the end of the treatment period, blood was drawn from each animal. Plasma was separated by centrifugation and stored at −70° C. The activity of ALT was determined in aliquots of plasma by standard spectrophotometric enzymatic techniques which were based upon the reduction of pyruvate by lactate dehydrogenase [See “Aged Mice are Resistant to the Hepatotoxic Effects of Endotoxin and Galactosamine” in Exp. Mol. Pathology, volume 59, 1993, pp 27-37]. The method measures the disappearance of NADH from time of incubation at 37° C. The activities have been expressed in μm/Liter/min (Table VI). Two different amounts of plasma were utilized in each assay to assure the measurement of the maximum rate.
There were no statistically significant differences between the ALT activities in the different treatment groups (Table VI, t-test: P>0.05). All numbers were in the normal range (63 to 307 μm/Liter/Min) of ALT values for the species of mouse utilized. All liver sections were assessed by an experienced pathologist in a blinded manner. The degree of necrosis was very mild in all animals.

[2] = test system: OVCAR-3 cisplatin-resistant ovarian carcinoma cell line; test: Cisplatin chemosensitization (MTS assay); format: cell-based, human; settings: 1 μM retinoid 3 days before and 3 days after one hour of cisplatin (40 μM or 1 μg/ml)
Experimental: The compounds of the present invention also find advantage over the standard retinoids, including retinoic acid and 4-HPR as chemosensitization agents. In another study, ovarian carcinoma cultures, including cisplatin-resistant cultures, were trypsinized and plated in microtiter plates at a concentration of 1000 cells per well. A series of natural and synthetic retinoids, including exemplar heteroarotinoids with the novel three atom linker, at a concentration of 5 μM were added to triplicate wells in the microtiter plates twenty-four hours later. The same volume of DMSO used to administer the compounds were added to the control cultures. After three days of treatment, a range of cisplatin concentrations were added to the wells. After one hours of exposure, the media and retinoid drugs were replenished. Cell survival was quantitated using the MTS assay (Promega). […] Thus, the present invention contemplates the process of sensitizing cells to cisplatin therapy and combined cisplatin and radiation therapy using the inventive heteroarotinoids.
In this regard, the cisplatin resistant OVCAR-3 cell line was pre-treated with a concentration of 1 μM of the indicated retinoids for 3 days, and then exposed to cisplatin at the concentration detected in tumors of treated patients (40 μM or 1 μg/ml). […] After one hour of cisplatin exposure, the cisplatin was removed and the cultures were grown in the presence of 1 μM of the indicated retinoids for an additional 3 days. The number of living cells present was then determined using the MTS (3-(4,5-dimethylthiazol-2-yl)-5-(3-carboxymethoxyphenyl)-2H-tetrazolium inner salt) assay (Promega). In the MTS assay, metabolically active cells reduce the MTS compound to an aqueous soluble formazan resulting in an absorbance that can be measured at 490 nm (Promega Technical Bulletin No.169). The optical density at 490 nm (OD490) of the MTS-treated cultures is then determined and used as a measure of the number of living cells in each well. The percent growth is determined by dividing the OD490 of the treated cultures by the OD490 of the untreated control cultures.

[3] = Monitoring of xenograph mice for signs of toxicity; format: in vivo; settings: 10 mg/kg/day (MTD for t-RA)
Experimental: Then OVCAR-3 cells in log phase growth were harvested by trypsinization, resuspended in RPMI culture medium, and centrifuged at 3000 rpm for 10 min. The pellets were then resuspended in RPMI culture medium at a concentration of 7×10^6 cells/mL before implantation into mice. Animals were injected with 3.5×10^6 cells into right scapular region with a 24-gauge needle/1 mL tuberculin syringe (Becton Dickinson, Rutherford, N.J.). Twenty four hours after tumor implantation, animals were randomized into four treatment groups of 5 animals each. Retinoids were administered daily p.o. beginning 35 days after tumor implantation with a 20-gauge intragastric feeding tube (Popper & Sons, New Hyde Park, N.Y.), 5 days/week, at doses of 10 mg/kg/day in 0.1 mL of super refined sesame oil (Corda, Inc., Parisppany, N.J.). Tumors were measured with calipers weekly, and tumor volumes were calculated using the formula: volume=length×width×heigth. Animal weights and clinical signs of overall health status and cutaneous toxicities were recorded weekly.

| SMILES | Percentage growth inhibition, C-33A (Cervix HPV− Mut p53) (C-33A) | Percentage growth inhibition, CAOV-3 (Ovarian HPV− Mut p53) (CAOV-3) | Percentage growth inhibition, HT-3 (Cervix HPV− Mut p53) (HT-3) | Percentage growth inhibition, SK-OV-3 (Ovarian HPV− Null p53) (SK-OV-3) | Percentage growth inhibition, SW962 (Vulva HPV− Mut p53) (SW962) | Percentage growth inhibition, SiHa (Cervix HPV+ Wt p53) (SiHa) | Percentage growth inhibition, OVCAR-3 (Ovarian HPV− Mut p53) (OVCAR-3) | liver toxicity (ALT activities, liver sections assessed by pathologist) [1] | chemosensitization to cisplatin (percent growth, FIG. 2) [2] | toxicity to the skin, bones, or liver [3] | ALT ACTIVITY ([1]; plasma of mice at end of treatment period) |
| --- | --- | --- | --- | --- | --- | --- | --- | --- | --- | --- | --- |
| CCOC(=O)c1ccc(NC(=O)Nc2ccc3c(c2)C(C)(C)CC(C)(C)S3)cc1 [heteroarotinoid 13] | 76% | 98% | 85% | 94% | 96% | 66% | 77% | do not appear to induce significant liver toxicity | effective | did not cause toxicity |  |
| CC1(C)CC(C)(C)c2cc(NC(=S)Nc3ccc([N+](=O)[O-])cc3)ccc2S1 [heteroarotinoid 11] | 87% | 80% | 82% | 100% | 98% | 72% | 94% | do not appear to induce significant liver toxicity | effective | did not cause toxicity | 118.5 ± 153.4 μm/Liter/Min |
